From patent US7138361B2, “Herbicidal heterocycles” (E. I. du Pont de Nemours and Company, priority 2000, dated 2006)

Key:
Type in all cases: in vivo
Nightshade = assay: Test C preemergence
From the text: (§1) Seeds of plant species selected from bermudagrass (Cynodon dactylon), Surinam grass (Brachiaria decumbens), cocklebur (Xanthium strumarium), corn (Zea mays), crabgrass (Digitaria sanguinalis), woolly cupgrass (Eriochloa villosa), giant foxtail (Setaria faberii), goosegrass (Eleusine indica), johnsongrass (Sorghum halepense), kochia (Kochia scoparia), lambsquarters (Chenopodium album), morningglory (Ipomoea hederacea), yellow nutsedge (Cyperus esculentus), pigweed (Amaranthus retroflexus), common ragweed (Ambrosia elatior), soybean (Glycine max) and velvetleaf (Abutilon theophrasti) were planted and treated preemergence with test chemicals formulated in a non-phytotoxic solvent mixture which included a surfactant.
(§2) At the same time, plants selected from these crop and weed species and also winter barley (Hordeum vulgare), blackgrass (Alopecurus myosuroides), canary grass (Phalaris minor), chickweed (Stellaria media), downy brome (Bromus tectorum), green foxtail (Setaria viridis), Italian ryegrass (Lolium multiflorum), wheat (Triticum aestivum), wild oat (Avena fatua) and windgrass (Apera spica-venti) were treated with postemergence applications of some of the test chemicals formulated in the same manner. Plants ranged in height from 2 to 18 cm (1- to 4-leaf stage) for postemergence treatments. Plant species in the flooded paddy test consisted of rice (Oryza saliva), smallflower flatsedge (Cyperus difformis), duck salad (Heteranthera limosa) and barnyardgrass (Echinochloa crus-galli) grown to the 2-leaf stage for testing. Treated plants and controls were maintained in a greenhouse for 12 to 14 days, after which time all species were compared to controls and visually evaluated. Plant response ratings, summarized in Table C, are based on a scale of 0 to 100 where 0 is no effect and 100 is complete control. A dash (-) response means no test result.

Sunflower [1] = assay: Test C preemergence
From the text: as §1, §2

[2] = system: Surinam grass (Brachiaria decumbens); assay: Test C preemergence; settings: for Plant response rating (0 to 100), Surinam grass: Rate 250 g/ha, visual evaluation after 12 to 14 days
From the text: as §1, §2

[3] = system: bermudagrass (Cynodon dactylon); assay: Test C preemergence; settings: for Plant response rating (0 to 100 where 0 is no effect and 100 is complete control), Bermudagrass: Rate 250 g/ha, visual evaluation after 12 to 14 days
From the text: as §1, §2

[4] = system: cocklebur (Xanthium strumarium); assay: Test C preemergence
From the text: as §1, §2

corn (Zea mays) = assay: Test C preemergence; settings: for Plant response rating (0 to 100), Corn: Rate 250 g/ha, visual evaluation after 12 to 14 days
From the text: as §1, §2

[5] = system: crabgrass (Digitaria sanguinalis); assay: Test C preemergence; settings: for Plant response rating (0 to 100), Crabgrass: Rate 250 g/ha, visual evaluation after 12 to 14 days
From the text: as §1, §2

[6] = system: giant foxtail (Setaria faberii); assay: Test C preemergence
From the text: as §1, §2

[7] = system: goosegrass (Eleusine indica); assay: Test C preemergence; settings: for Plant response rating (0 to 100), Goosegrass: Rate 250 g/ha, visual evaluation after 12 to 14 days
From the text: as §1, §2

[8] = system: johnsongrass (Sorghum halepense); assay: Test C preemergence; settings: for Plant response rating (0 to 100), Johnsongrass: Rate 250 g/ha, visual evaluation after 12 to 14 days
From the text: as §1, §2

kochia (Kochia scoparia) = assay: Test C preemergence; settings: for Plant response rating (0 to 100), Kochia: Rate 250 g/ha, visual evaluation after 12 to 14 days
From the text: as §1, §2

[9] = system: lambsquarters (Chenopodium album); assay: Test C preemergence; settings: for Plant response rating (0 to 100), Lambsquarters: Rate 250 g/ha, visual evaluation after 12 to 14 days
From the text: as §1, §2

[10] = system: morningglory (Ipomoea hederacea); assay: Test C preemergence; settings: for Plant response rating (0 to 100), Morningglory: Rate 250 g/ha, visual evaluation after 12 to 14 days
From the text: as §1, §2

[11] = system: pigweed (Amaranthus retroflexus); assay: Test C preemergence; settings: for Plant response rating (0 to 100), Pigweed: Rate 250 g/ha, visual evaluation after 12 to 14 days
From the text: as §1, §2

soybean (Glycine max) = assay: Test C preemergence; settings: for Plant response rating (0 to 100), Soybean: Rate 250 g/ha, visual evaluation after 12 to 14 days
From the text: as §1, §2

[12] = system: velvetleaf (Abutilon theophrasti); assay: Test C preemergence; settings: for Plant response rating (0 to 100), Velvetleaf: Rate 250 g/ha, visual evaluation after 12 to 14 days
From the text: as §1, §2

[13] = system: woolly cupgrass (Eriochloa villosa); assay: Test C preemergence; settings: for Plant response rating (0 to 100), Cupgrass, Woolly: Rate 250 g/ha, visual evaluation after 12 to 14 days
From the text: as §1, §2

[14] = system: yellow nutsedge (Cyperus esculentus); assay: Test C preemergence; settings: for Plant response rating (0 to 100), Nutsedge: Rate 250 g/ha, visual evaluation after 12 to 14 days
From the text: as §1, §2

[15] = system: barnyardgrass (Echinochloa crus-galli); assay: Test C flooded paddy test; settings: for Barnyardgrass plant response rating: Flooded Paddy, scale 0 to 100, 0 no effect, 100 complete control; for Plant response rating, Barnyardgrass: flooded paddy test, scale 0 to 100 (0 no effect, 100 complete control)
In short: (§3)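 Ratings come from visual comparison with control plants after 12 to 14 days in the greenhouse. Each species was at the 2-leaf stage when the flooded paddy was treated. Scores run from 0, meaning no effect, to 100, meaning complete control.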

[16] = system: duck salad (Heteranthera limosa); assay: Test C flooded paddy test; settings: for Ducksalad plant response rating: Flooded Paddy, scale 0 to 100, 0 no effect, 100 complete control
In short: as §3

[17] = system: smallflower flatsedge (Cyperus difformis); assay: Test C flooded paddy test; settings: for Flatsedge plant response rating: Flooded Paddy, scale 0 to 100, 0 no effect, 100 complete control; for Plant response rating, Flatsedge: flooded paddy test, scale 0 to 100 (0 no effect, 100 complete control)
In short: as §3

Sunflower [18] = assay: Test C preemergence; settings: Rate 250 g/ha, visual evaluation after 12 to 14 days
[19] = Rate 62 g/ha, scale 0 to 100, 0 no effect, 100 complete control
[20] = Preemergence, Rate 500 g/ha, scale 0 to 100
[21] = preemergence, Rate 125 g/ha, scale 0 to 100, 0 no effect, 100 complete control
[22] = preemergence, Rate 250 g/ha, visual evaluation after 12 to 14 days

O=C1C(n2ccc(C3CCCCC3)n2)SCN1c1cccc(C(F)(F)F)c1 (centres unmarked) [Compound 52]
80: Plant response rating, Lambsquarters [9, 21]
60: Plant response rating, Foxtail, Giant [6, 19] | Plant response rating, Kochia (kochia (Kochia scoparia); [20]) | Plant response rating, Soybean (soybean (Glycine max); [20]) | Plant response rating (0 to 100), Cupgrass, Woolly ([13]; preemergence) | Plant response rating, Barnyardgrass ([15]; Rate 125 g/ha)
100: Plant response rating, Bermudagrass [3, 20] | Plant response rating, Bermudagrass [3, 19] | Plant response rating (0 to 100 where 0 is no effect and 100 is complete control), Bermudagrass ([3]; preemergence) | Plant response rating, Bermudagrass [3, 21] | Plant response rating, Crabgrass [5, 20] | Plant response rating (0 to 100), Crabgrass ([5]; preemergence) | Plant response rating, Crabgrass [5, 21] | Plant response rating, Goosegrass [7, 20] | Plant response rating (0 to 100), Goosegrass ([7]; preemergence) | Plant response rating, Johnsongrass [8, 20] | Plant response rating, Lambsquarters [9, 20] | Plant response rating (0 to 100), Lambsquarters ([9]; preemergence) | Plant response rating, Pigweed [11, 20] | Plant response rating, Cupgrass, Woolly [13, 20] | Barnyardgrass plant response rating ([15]; Rate 500 g/ha) | Ducksalad plant response rating ([16]; Rate 500 g/ha) | Flatsedge plant response rating ([17]; Rate 250 g/ha) | Flatsedge plant response rating ([17]; Rate 500 g/ha)
20: Plant response rating, Surinam grass [2, 21] | Plant response rating (0 to 100), Corn (corn (Zea mays); preemergence) | Plant response rating, Kochia (kochia (Kochia scoparia); [21]) | Plant response rating (0 to 100), Soybean (soybean (Glycine max); preemergence) | Plant response rating, Soybean (soybean (Glycine max); [21]) | Plant response rating (0 to 100), Nutsedge ([14]; preemergence) | Plant response rating, Ducksalad ([16]; flooded paddy test, Rate 62 g/ha, scale 0 to 100 (0 no effect, 100 complete control))
90: Plant response rating, Crabgrass [5, 19] | Plant response rating, Goosegrass [7, 19] | Plant response rating, Goosegrass [7, 21] | Plant response rating (0 to 100), Johnsongrass ([8]; preemergence) | Plant response rating, Flatsedge ([17]; Rate 62 g/ha) | Plant response rating, Flatsedge ([17]; Rate 125 g/ha)
30: Plant response rating, Nightshade (Nightshade; [19]) | Plant response rating, Nightshade (Nightshade; Rate 125 g/ha, scale 0 to 100, 0 no effect, 100 complete control) | Plant response rating (0 to 100), Surinam grass ([2]; preemergence) | Plant response rating, Cocklebur [4, 20] | Plant response rating, Foxtail, Giant [6, 20] | Plant response rating (0 to 100), Kochia (kochia (Kochia scoparia); preemergence) | Plant response rating, Morningglory [10, 20] | Plant response rating (0 to 100), Pigweed ([11]; preemergence) | Plant response rating, Cupgrass, Woolly [13, 19] | Plant response rating, Barnyardgrass ([15]; Rate 62 g/ha)
70: Plant response rating, Foxtail, Giant [6, 21] | Barnyardgrass plant response rating ([15]; Rate 250 g/ha)
50: Plant response rating, Nightshade (Nightshade; Rate 500 g/ha, scale 0 to 100) | Plant response rating, Sunflower (Sunflower [1]; Rate 500 g/ha, scale 0 to 100) | Plant response rating, Surinam grass [2, 20] | Plant response rating, Cupgrass, Woolly [13, 21]
40: Plant response rating, Corn (corn (Zea mays); [20]) | Plant response rating, Johnsongrass [8, 21] | Plant response rating, Nutsedge [14, 20] | Ducksalad plant response rating ([16]; Rate 250 g/ha)
0: Plant response rating, Surinam grass [2, 19] | Plant response rating, Cocklebur [4, 19] | Plant response rating, Cocklebur [4, 21] | Plant response rating, Corn (corn (Zea mays); [19]) | Plant response rating, Corn (corn (Zea mays); [21]) | Plant response rating, Johnsongrass [8, 19] | Plant response rating, Kochia (kochia (Kochia scoparia); [19]) | Plant response rating, Lambsquarters [9, 19] | Plant response rating (0 to 100), Morningglory ([10]; preemergence) | Plant response rating, Morningglory [10, 21] | Plant response rating, Pigweed [11, 21] | Plant response rating, Velvetleaf [12, 20] | Plant response rating (0 to 100), Velvetleaf ([12]; preemergence) | Plant response rating, Velvetleaf [12, 21] | Plant response rating, Nutsedge [14, 19] | Plant response rating, Nutsedge [14, 21] | Plant response rating (0 to 100), Sunflower (Sunflower [18])

CC(C)(C)c1ccn(C2CCN(c3cccc(Br)c3)C2=O)n1 (centres unmarked) [Compound 33]
100: Plant response rating, Nightshade (Nightshade; Rate 500 g/ha, scale 0 to 100) | Plant response rating, Surinam grass [2, 20] | Plant response rating, Bermudagrass [3, 20] | Plant response rating (0 to 100 where 0 is no effect and 100 is complete control), Bermudagrass ([3]; preemergence) | Plant response rating, Bermudagrass [3, 21] | Plant response rating, Crabgrass [5, 20] | Plant response rating (0 to 100), Crabgrass ([5]; preemergence) | Plant response rating, Crabgrass [5, 21] | Plant response rating, Foxtail, Giant [6, 21] | Plant response rating, Goosegrass [7, 20] | Plant response rating (0 to 100), Goosegrass ([7]; preemergence) | Plant response rating, Goosegrass [7, 21] | Plant response rating, Johnsongrass [8, 20] | Plant response rating, Kochia (kochia (Kochia scoparia); [20]) | Plant response rating, Kochia (kochia (Kochia scoparia); [19]) | Plant response rating (0 to 100), Kochia (kochia (Kochia scoparia); preemergence) | Plant response rating, Kochia (kochia (Kochia scoparia); [21]) | Plant response rating, Lambsquarters [9, 20] | Plant response rating, Lambsquarters [9, 19] | Plant response rating (0 to 100), Lambsquarters ([9]; preemergence) | Plant response rating, Lambsquarters [9, 21] | Plant response rating, Pigweed [11, 20] | Plant response rating, Cupgrass, Woolly [13, 20] | Plant response rating (0 to 100), Cupgrass, Woolly ([13]; preemergence)
50: Plant response rating, Foxtail, Giant [6, 19]
60: Plant response rating, Sunflower (Sunflower [1]; Rate 500 g/ha, scale 0 to 100) | Plant response rating (0 to 100), Pigweed ([11]; preemergence)
40: Plant response rating, Corn (corn (Zea mays); [20])
90: Plant response rating (0 to 100), Surinam grass ([2]; preemergence) | Plant response rating, Bermudagrass [3, 19] | Plant response rating, Cupgrass, Woolly [13, 21]
20: Plant response rating, Cupgrass, Woolly [13, 19]
0: Plant response rating, Nightshade (Nightshade; [19]) | Plant response rating, Sunflower (Sunflower [1]; [19]) | Plant response rating, Surinam grass [2, 19] | Plant response rating, Surinam grass [2, 21] | Plant response rating, Cocklebur [4, 20] | Plant response rating, Cocklebur [4, 19] | Plant response rating (0 to 100), Cocklebur [4, 22] | Plant response rating, Cocklebur [4, 21] | Plant response rating, Corn (corn (Zea mays); [19]) | Plant response rating (0 to 100), Corn (corn (Zea mays); preemergence) | Plant response rating, Corn (corn (Zea mays); [21]) | Plant response rating (0 to 100), Foxtail, Giant [6, 22] | Plant response rating, Johnsongrass [8, 19] | Plant response rating (0 to 100), Johnsongrass ([8]; preemergence) | Plant response rating, Johnsongrass [8, 21] | Plant response rating, Morningglory [10, 20] | Plant response rating, Morningglory [10, 19] | Plant response rating (0 to 100), Morningglory ([10]; preemergence) | Plant response rating, Morningglory [10, 21] | Plant response rating, Pigweed [11, 19] | Plant response rating, Pigweed [11, 21] | Plant response rating, Soybean (soybean (Glycine max); [20]) | Plant response rating, Soybean (soybean (Glycine max); [19]) | Plant response rating (0 to 100), Soybean (soybean (Glycine max); preemergence) | Plant response rating, Soybean (soybean (Glycine max); [21]) | Plant response rating, Velvetleaf [12, 20] | Plant response rating, Velvetleaf [12, 19] | Plant response rating (0 to 100), Velvetleaf ([12]; preemergence) | Plant response rating, Velvetleaf [12, 21] | Plant response rating, Nutsedge [14, 20] | Plant response rating, Nutsedge [14, 19] | Plant response rating (0 to 100), Nutsedge ([14]; preemergence) | Plant response rating, Nutsedge [14, 21]
30: Plant response rating, Foxtail, Giant [6, 20] | Plant response rating (0 to 100), Sunflower (Sunflower [18])
80: Plant response rating, Crabgrass [5, 19] | Plant response rating, Goosegrass [7, 19]
